{"source": "paper PMC5218480", "about": "(PLoS ONE, 2017)", "tested_on": "MV-4-11 cells", "experiment": "Gene expression microarray analysis (Affymetrix PrimeView) and GSEA", "format": "cell-based, human", "set-up": "RFU PODN (11730768_x_at) / Fold change /veh PODN (11730768_x_at) / RFU LINC00158 (11744669_a_at) / Fold change /veh LINC00158 (11744669_a_at) / RFU DUSP10 (11751237_a_at) / Fold change /veh DUSP10 (11751237_a_at) / RFU ID3 (11757404_x_at) / Fold change /veh ID3 (11757404_x_at) / RFU PLEKHG5 (11737974_s_at) / Fold change /veh PLEKHG5 (11737974_s_at) / RFU LRRC4B (11730491_at) / Fold change /veh LRRC4B (11730491_at) / RFU GIMAP4 (11747438_a_at) / Fold change /veh GIMAP4 (11747438_a_at) / RFU KRT8 (11758183_x_at) / Fold change /veh KRT8 (11758183_x_at) / RFU CNN1 (11734310_a_at) / Fold change /veh CNN1 (11734310_a_at) / RFU VPS37D (11726825_at) / Fold change /veh VPS37D (11726825_at) / RFU C10orf10 (11716522_x_at) / Fold change /veh C10orf10 (11716522_x_at) / RFU KIR2DL2 /// KIR2DL4 /// KIR2DL5A /// KIR2DL5B /// KIR2DS1 /// KIR2DS2 /// KIR2DS3 /// KIR2DS4 /// KIR3DL3 /// KIR3DL3 /// KIR3DS1 (11738374_at) / Fold change /veh KIR2DL2 /// KIR2DL4 /// KIR2DL5A /// KIR2DL5B /// KIR2DS1 /// KIR2DS2 /// KIR2DS3 /// KIR2DS4 /// KIR3DL3 /// KIR3DL3 /// KIR3DS1 (11738374_at) / RFU C1QL1 (11718748_at) / Fold change /veh C1QL1 (11718748_at) / RFU TMPRSS4 (11747572_a_at) / Fold change /veh TMPRSS4 (11747572_a_at) / RFU HAMP (11756126_x_at) / Fold change /veh HAMP (11756126_x_at) / RFU RNFT2 (11725882_a_at) / Fold change /veh RNFT2 (11725882_a_at) / RFU NR4A2 (11747474_a_at) / Fold change /veh NR4A2 (11747474_a_at) / RFU ABCC12 (11746883_a_at) / Fold change /veh ABCC12 (11746883_a_at) / RFU TMEM136 (11760407_x_at) / Fold change /veh TMEM136 (11760407_x_at) / RFU CLDN22 /// WWC2 (11732394_at) / Fold change /veh CLDN22 /// WWC2 (11732394_at) / RFU HLA-DPB1 (11760878_x_at) / Fold change /veh HLA-DPB1 (11760878_x_at) / RFU SPINT1 (11716480_a_at) / Fold change /veh SPINT1 (11716480_a_at) / RFU GAP43 (11754022_s_at) / Fold change /veh GAP43 (11754022_s_at) / RFU A4GNT (11735810_at) / Fold change /veh A4GNT (11735810_at) / RFU PRB3 (11715151_x_at) / Fold change /veh PRB3 (11715151_x_at) / RFU TUBB4B (11761932_at) / Fold change /veh TUBB4B (11761932_at) / RFU CAPN14 (11732068_a_at) / Fold change /veh CAPN14 (11732068_a_at) / RFU TMCC2 (11721928_a_at) / Fold change /veh TMCC2 (11721928_a_at) / RFU IRGQ (11745062_a_at) / Fold change /veh IRGQ (11745062_a_at) / RFU FAM174B (11720279_a_at) / Fold change /veh FAM174B (11720279_a_at) / RFU TMPRSS4 (11748680_a_at) / Fold change /veh TMPRSS4 (11748680_a_at) / RFU FAM212B (11763350_a_at) / Fold change /veh FAM212B (11763350_a_at) / RFU PLEKHG5 (11743358_a_at) / Fold change /veh PLEKHG5 (11743358_a_at) / RFU ZSCAN30 (11745921_a_at) / Fold change /veh ZSCAN30 (11745921_a_at) / RFU CMKLR1 (11741424_a_at) / Fold change /veh CMKLR1 (11741424_a_at) / RFU LOC101060620 /// MAPK8IP1 (11723275_at) / Fold change /veh LOC101060620 /// MAPK8IP1 (11723275_at) / RFU SPTSSB (11747773_x_at) / Fold change /veh SPTSSB (11747773_x_at) / RFU PRSS12 (11739890_at) / Fold change /veh PRSS12 (11739890_at) / RFU BIN1 (11741810_x_at) / Fold change /veh BIN1 (11741810_x_at) / RFU WNT11 (11732464_a_at) / Fold change /veh WNT11 (11732464_a_at) / RFU C10orf10 (11716521_a_at) / Fold change /veh C10orf10 (11716521_a_at) / RFU C5orf56 (11738089_at) / Fold change /veh C5orf56 (11738089_at) / RFU CYB561 (11721691_x_at) / Fold change /veh CYB561 (11721691_x_at) / RFU ANKRD19P (11752326_a_at) / Fold change /veh ANKRD19P (11752326_a_at) / RFU OR2T12 /// OR2T33 /// OR2T8 (11738714_s_at) / Fold change /veh OR2T12 /// OR2T33 /// OR2T8 (11738714_s_at) / RFU VCAN (11748164_a_at) / Fold change /veh VCAN (11748164_a_at) / RFU JSRP1 (11732532_at) / Fold change /veh JSRP1 (11732532_at) / RFU KRTAP10-11 (11738290_x_at) / Fold change /veh KRTAP10-11 (11738290_x_at) / RFU MYO3A (11730013_a_at) / Fold change /veh MYO3A (11730013_a_at) / RFU EBF3 (11725865_a_at) / Fold change /veh EBF3 (11725865_a_at) / RFU CAMK2N1 (11719241_x_at) / Fold change /veh CAMK2N1 (11719241_x_at) / RFU C5orf56 (11738088_a_at) / Fold change /veh C5orf56 (11738088_a_at) / RFU OLFML3 (11715873_a_at) / Fold change /veh OLFML3 (11715873_a_at) / RFU LOC100653217 /// NTM (11731650_a_at) / Fold change /veh LOC100653217 /// NTM (11731650_a_at) / RFU MAPK11 (11762145_a_at) / Fold change /veh MAPK11 (11762145_a_at) / RFU FIZ1 (11724087_x_at) / Fold change /veh FIZ1 (11724087_x_at) / RFU OASL (11726364_x_at) / Fold change /veh OASL (11726364_x_at) / RFU SOX15 (11748057_x_at) / Fold change /veh SOX15 (11748057_x_at) / RFU CD79A (11719716_a_at) / Fold change /veh CD79A (11719716_a_at) / RFU HIST1H1D (11736915_at) / Fold change /veh HIST1H1D (11736915_at) / RFU CASKIN2 (11723855_a_at) / Fold change /veh CASKIN2 (11723855_a_at) / RFU LOC730098 (11760151_x_at) / Fold change /veh LOC730098 (11760151_x_at) / RFU OR4N2 (11742367_at) / Fold change /veh OR4N2 (11742367_at) / RFU PRRT2 (11749266_a_at) / Fold change /veh PRRT2 (11749266_a_at) / RFU SNX32 (11753110_a_at) / Fold change /veh SNX32 (11753110_a_at) / RFU CDHR5 (11726645_a_at) / Fold change /veh CDHR5 (11726645_a_at) / RFU RCAN1 (11760418_a_at) / Fold change /veh RCAN1 (11760418_a_at) / RFU FAM167A (11723789_a_at) / Fold change /veh FAM167A (11723789_a_at) / RFU FAM26E (11764081_at) / Fold change /veh FAM26E (11764081_at) / RFU ISYNA1 (11749810_s_at) / Fold change /veh ISYNA1 (11749810_s_at) / RFU ACY1 (11761880_at) / Fold change /veh ACY1 (11761880_at) / RFU 11764098_at / Fold change /veh 11764098_at / RFU SAMD14 (11745864_x_at) / Fold change /veh SAMD14 (11745864_x_at) / RFU NPB (11741838_a_at) / Fold change /veh NPB (11741838_a_at) / RFU TMPRSS6 (11731388_a_at) / Fold change /veh TMPRSS6 (11731388_a_at) / RFU KRTAP10-2 (11738614_at) / Fold change /veh KRTAP10-2 (11738614_at) / RFU ARHGAP8 /// PRR5-ARHGAP8 (11727945_x_at) / Fold change /veh ARHGAP8 /// PRR5-ARHGAP8 (11727945_x_at) / RFU KRTAP5-7 /// NADSYN1 (11734609_at) / Fold change /veh KRTAP5-7 /// NADSYN1 (11734609_at) / RFU RASL12 (11751679_a_at) / Fold change /veh RASL12 (11751679_a_at) / RFU CDKN2B (11736163_a_at) / Fold change /veh CDKN2B (11736163_a_at) / RFU PRF1 (11729649_at) / Fold change /veh PRF1 (11729649_at) / RFU, ZNF638 /// ZNF638-IT1 / Fold change vs veh, ZNF638 /// ZNF638-IT1 / RFU, PANK3 / Fold change vs veh, PANK3 / RFU, SH3YL1 / Fold change vs veh, SH3YL1 / RFU, ZEB2 / Fold change vs veh, ZEB2 / RFU, NRIP1 / Fold change vs veh, NRIP1 / RFU, PTTG1IP / Fold change vs veh, PTTG1IP / RFU, CAPN2 / Fold change vs veh, CAPN2 / RFU, MED14 / Fold change vs veh, MED14 / RFU, SNORA58 / Fold change vs veh, SNORA58 / RFU, C1orf63 / Fold change vs veh, C1orf63 / RFU, LRRFIP1 / Fold change vs veh, LRRFIP1 / RFU, NDUFAF7 / Fold change vs veh, NDUFAF7 / RFU, SLC12A2 / Fold change vs veh, SLC12A2 / RFU, IBTK / Fold change vs veh, IBTK / RFU, ESF1 / Fold change vs veh, ESF1 / Fold change vs veh, TMEM50B / RFU, TAOK1 / Fold change vs veh, TAOK1 / RFU, ACBD3 / Fold change vs veh, ACBD3 / RFU, TMA16 / Fold change vs veh, TMA16 / RFU, RWDD3 / Fold change vs veh, RWDD3 / RFU, BCAT1 / Fold change vs veh, BCAT1 / RFU, EDEM3 / Fold change vs veh, EDEM3 / RFU, TMEM33 / Fold change vs veh, TMEM33 / RFU, WDR75 / Fold change vs veh, WDR75 / RFU, AHCTF1 / Fold change vs veh, AHCTF1 / RFU, TFRC / Fold change vs veh, TFRC / RFU, ZDHHC17 / Fold change vs veh, ZDHHC17 / RFU, NOM1 / Fold change vs veh, NOM1 / RFU, ARL8B / Fold change vs veh, ARL8B / RFU, ZBTB11 / Fold change vs veh, ZBTB11 / RFU, TAMM41 / Fold change vs veh, TAMM41 / RFU, KIAA1704 /// LOC100996395 / Fold change vs veh, KIAA1704 /// LOC100996395 / RFU, ING1 / Fold change vs veh, ING1 / RFU, TRMT61B / Fold change vs veh, TRMT61B / RFU, FUBP3 / Fold change vs veh, FUBP3 / RFU, TP53 / Fold change vs veh, TP53 / RFU, TNKS2 / Fold change vs veh, TNKS2 / RFU, ZFP14 / Fold change vs veh, ZFP14 / RFU, ACTR2 / Fold change vs veh, ACTR2 / RFU, PPP3R1 / Fold change vs veh, PPP3R1 / RFU, PIK3R1 / Fold change vs veh, PIK3R1 / RFU, HNRNPA1 / Fold change vs veh, HNRNPA1 / RFU, RNF170 / Fold change vs veh, RNF170 / RFU, ZNF28 / Fold change vs veh, ZNF28 / RFU, RNGTT / Fold change vs veh, RNGTT / RFU, OGT / Fold change vs veh, OGT / RFU, BRD1 / Fold change vs veh, BRD1 / RFU, MARS / Fold change vs veh, MARS / RFU, ZNF655 / Fold change vs veh, ZNF655 / RFU, FAHD1 / Fold change vs veh, FAHD1 / RFU, BDP1 / Fold change vs veh, BDP1 / RFU, LRRCC1 / Fold change vs veh, LRRCC1 / RFU, ARID1A / Fold change vs veh, ARID1A / RFU, ZNF146 / Fold change vs veh, ZNF146 / RFU, ZNF330 / Fold change vs veh, ZNF330 / RFU, GPN3 / Fold change vs veh, GPN3 / RFU, C9orf123 / Fold change vs veh, C9orf123 / RFU, N4BP2L2 / Fold change vs veh, N4BP2L2 / RFU, ARFIP1 / Fold change vs veh, ARFIP1 / RFU, FAM179B / Fold change vs veh, FAM179B / RFU, BCL10 / Fold change vs veh, BCL10 / RFU, UHRF1BP1L / Fold change vs veh, UHRF1BP1L / RFU, BET1 / Fold change vs veh, BET1 / RFU, CNOT2 / Fold change vs veh, CNOT2 / RFU, ZNF268 / Fold change vs veh, ZNF268 / Fold change vs veh, ZNF507 / RFU, DGCR2 / Fold change vs veh, DGCR2 / RFU, WDSUB1 / Fold change vs veh, WDSUB1 / Fold change vs veh, HSP90B1 /// MIR3652 / RFU, ADSS / Fold change vs veh, ADSS / RFU, GK / Fold change vs veh, GK / RFU, ZNF148 / Fold change vs veh, ZNF148 / RFU, TAF9 / Fold change vs veh, TAF9 / RFU, SLC1A5 / Fold change vs veh, SLC1A5 / RFU, SLMO2 / Fold change vs veh, SLMO2 / RFU, ABCC4 / Fold change vs veh, ABCC4 / RFU, LOC101060439 /// RAP1B / Fold change vs veh, LOC101060439 /// RAP1B / RFU, RFX7 / Fold change vs veh, RFX7 / RFU, GTPBP10 / Fold change vs veh, GTPBP10 / RFU, CNEP1R1 / Fold change vs veh, CNEP1R1 / RFU, BIVM-ERCC5 /// ERCC5 / Fold change vs veh, BIVM-ERCC5 /// ERCC5 / RFU, ILF3 / Fold change vs veh, ILF3 / RFU 11762660_at / Fold change /veh 11762660_at / RFU VCAN (11757783_s_at) / Fold change /veh VCAN (11757783_s_at) / RFU DDX43 (11728927_at) / Fold change /veh DDX43 (11728927_at) / RFU KRT8 (11758188_x_at) / Fold change /veh KRT8 (11758188_x_at) / RFU NKD1 (11759106_at) / Fold change /veh NKD1 (11759106_at) / RFU SRD5A1 (11742802_a_at) / Fold change /veh SRD5A1 (11742802_a_at) / RFU TPSAB1 /// TPSB2 (11721975_s_at) / Fold change /veh TPSAB1 /// TPSB2 (11721975_s_at) / RFU GSTM3 (11746129_a_at) / Fold change /veh GSTM3 (11746129_a_at) / RFU IL23R (11737362_x_at) / Fold change /veh IL23R (11737362_x_at) / RFU TMEM51 (11727254_a_at) / Fold change /veh TMEM51 (11727254_a_at) / RFU PIWIL2 (11732686_x_at) / Fold change /veh PIWIL2 (11732686_x_at) / RFU ORM1 (11744905_x_at) / Fold change /veh ORM1 (11744905_x_at) / RFU CCDC152 (11743942_at) / Fold change /veh CCDC152 (11743942_at) / RFU ECM1 (11717891_a_at) / Fold change /veh ECM1 (11717891_a_at) / RFU IL23R (11748794_a_at) / Fold change /veh IL23R (11748794_a_at) / RFU TNFAIP8L3 (11732012_x_at) / Fold change /veh TNFAIP8L3 (11732012_x_at) / RFU MBOAT4 (11741988_at) / Fold change /veh MBOAT4 (11741988_at) / RFU 11764193_at / Fold change /veh 11764193_at / RFU TMEM53 (11763286_at) / Fold change /veh TMEM53 (11763286_at) / RFU MAGEB2 (11727129_at) / Fold change /veh MAGEB2 (11727129_at) / RFU TMEM200A (11744735_a_at) / Fold change /veh TMEM200A (11744735_a_at) / RFU CCDC152 (11751479_a_at) / Fold change /veh CCDC152 (11751479_a_at) / RFU FAM211A (11726209_a_at) / Fold change /veh FAM211A (11726209_a_at) / RFU RGS16 (11746705_a_at) / Fold change /veh RGS16 (11746705_a_at) / RFU VCAN (11755009_s_at) / Fold change /veh VCAN (11755009_s_at) / RFU RHOB (11743442_s_at) / Fold change /veh RHOB (11743442_s_at) / RFU RGS16 (11720943_a_at) / Fold change /veh RGS16 (11720943_a_at) / RFU RGS16 (11720944_at) / Fold change /veh RGS16 (11720944_at) / RFU, VPS4B / Fold change vs veh, VPS4B / RFU, CREB1 / Fold change vs veh, CREB1 / RFU, DNAJC13 / Fold change vs veh, DNAJC13 / RFU, GNAQ / Fold change vs veh, GNAQ / RFU, CDK5R1 / Fold change vs veh, CDK5R1 / RFU, ZRANB3 / Fold change vs veh, ZRANB3 / RFU, CUL4A / Fold change vs veh, CUL4A / RFU, CCNY / Fold change vs veh, CCNY / RFU, UFL1 / Fold change vs veh, UFL1 / RFU, COG3 / Fold change vs veh, COG3 / RFU, DIAPH2 / Fold change vs veh, DIAPH2 / RFU, SKA2 / Fold change vs veh, SKA2 / RFU, AFF3 / Fold change vs veh, AFF3 / RFU, LMF1 / Fold change vs veh, LMF1 / RFU, IPO11 / Fold change vs veh, IPO11 / RFU, DFFB / Fold change vs veh, DFFB / RFU, FOXP1 / Fold change vs veh, FOXP1 / RFU, CARD8 / Fold change vs veh, CARD8 / RFU, STRN3 / Fold change vs veh, STRN3 / RFU, ADK / Fold change vs veh, ADK / RFU, RASSF2 / Fold change vs veh, RASSF2 / RFU, WIPF1 / Fold change vs veh, WIPF1 / RFU, LARP1B / Fold change vs veh, LARP1B / RFU, RASA1 / Fold change vs veh, RASA1 / RFU, RB1 / Fold change vs veh, RB1 / RFU, PPFIA1 / Fold change vs veh, PPFIA1 / RFU, MAT2A / Fold change vs veh, MAT2A / RFU, CCT5 / Fold change vs veh, CCT5 / RFU, WDR92 / Fold change vs veh, WDR92 / RFU, CUX1 / Fold change vs veh, CUX1 / RFU, TTC7A / Fold change vs veh, TTC7A / RFU, TMEM135 / Fold change vs veh, TMEM135 / RFU, DEPTOR / Fold change vs veh, DEPTOR / RFU, CPM / Fold change vs veh, CPM / RFU, DNAJB6 / Fold change vs veh, DNAJB6 / RFU, CACNA2D3 / Fold change vs veh, CACNA2D3 / RFU, DTX4 / Fold change vs veh, DTX4 / RFU, TFCP2 / Fold change vs veh, TFCP2 / RFU, GMCL1 /// GMCL1P1 / Fold change vs veh, GMCL1 /// GMCL1P1 / RFU, AEBP2 / Fold change vs veh, AEBP2 / RFU, SNHG1 /// SNORD22 /// SNORD25 /// SNORD26 /// SNORD27 /// SNORD28 /// SNORD29 /// SNORD31 / Fold change vs veh, SNHG1 /// SNORD22 /// SNORD25 /// SNORD26 /// SNORD27 /// SNORD28 /// SNORD29 /// SNORD31 / Fold change (Aza/veh), C12orf56 (ProbeSet 11735607_a_at) / Fold change (ACY-1035/veh), C12orf56 (ProbeSet 11735607_a_at) / Fold change (Aza/veh), FGFR1OP (ProbeSet 11751329_s_at) / Fold change (ACY-1035/veh), FGFR1OP (ProbeSet 11751329_s_at) / Fold change (Aza/veh), VPS36 (ProbeSet 11739960_a_at) / Fold change (ACY-1035/veh), VPS36 (ProbeSet 11739960_a_at) / RFU SYPL1 (11715823_x_at) / Fold change /veh SYPL1 (11715823_x_at) / RFU IGFBP7 (11715501_s_at) / Fold change /veh IGFBP7 (11715501_s_at) / RFU REEP3 (11722064_at) / Fold change /veh REEP3 (11722064_at) / RFU IGLL1 (11728026_x_at) / Fold change /veh IGLL1 (11728026_x_at): dose or concentration left out as unconfirmed", "conditions": "ProbeSet 11724877_a_at; LIST D", "data": [{"smiles": "Nc1ncn([C@@H]2O[C@H](CO)[C@@H](O)[C@H]2O)c(=O)n1", "note": "[azacitidine]", "values": [{"measurement": "RFU, AEBP2", "result": 23.96, "unit": "RFU"}]}]}
